Measurements: PMC4528135, “Kinetic Investigations of the Role of Factor Inhibiting Hypoxia-inducible Factor (FIH) as an Oxygen Sensor” (The Journal of Biological Chemistry, 2015)
Like-named read-outs stand apart in the source and are kept apart here. One block for each molecule: values may come before it.

Legend:
Type in all cases: biochemical
[1] = biological target: T1, FIH (Homo sapiens, UniProt Q9NWT6); assay: Rapid quench-flow, FIH pre-steady-state product and succinate formation; settings: for Rapid quench-flow kproduct / Rapid quench-flow ksuccinate: 0.5 mM apo-FIH, 0.4 mM Fe(II), 5 mM 2OG, 1 mM substrate, 50 mM HEPES pH 7.5, O2-saturated buffer 1:1, 5 °C, quenched with 1% CF3CO2H; for Rapid quench-flow kproduct: hydroxylation by MALDI-TOF-MS, 1–3 separate experiments; for Rapid quench-flow ksuccinate: succinate by LC-MS
T1 construct: Full-length recombinant FIH, two- and three-consensus ankyrin repeats (2CA and 3CA) were produced as described; His6 (cleaved yes); made in house; host or cells: Escherichia coli BL21(DE3)
Protocol: Rapid quench-flow experiments were performed using the same conditions and preparation of the assay mixture as used in stopped-flow experiments. Rapid quench-flow equipment (TgK Scientific Ltd.) in an anaerobic glove box was used for the experiments. Samples were quenched with 1% CF3CO2H and analyzed using MALDI-TOF-MS (peptide hydroxylation) as described above or liquid chromatography-mass spectrometry (LC-MS, for succinate production). For LC-MS, chromatographic separation was performed at 50 °C using a Waters ACQUITY BEH Amide 1.7-μm, 2.1 × 100-mm column on a Waters ACQUITY^TM ultraperformance liquid chromatography system (Waters Corp., Milford, MA). The following eluents were used: mobile phase A: 10% H2O, 90% acetonitrile (v/v), 10 mM ammonium formate; mobile phase B: 50% H2O, 50% acetonitrile (v/v), 10 mM ammonium formate. The elution gradient was 0–7.0 min linear from 10 to 30% B, and 7.0–9.0 min at 10% B for re-equilibration of the column. A constant flow rate of 0.4 ml/min was used. Analytes were detected in negative ionization mode using single reaction monitoring on a Quattro triple quadrupole mass spectrometer (Waters) with a cone voltage of 15 V and a capillary voltage of 3.0 kV. The desolvation temperature was set to 250 °C, and the source temperature was set to 120 °C.
FIGURE 9. Rapid quench-flow experiments showing FIH-catalyzed hydroxylation of HIF-1/2α CAD and ARD substrates. Reaction mixtures containing anaerobic 0.5 mM apo-FIH, 0.4 mM Fe(II), 5 mM 2OG, 1 mM peptide in HEPES 50 mM (pH 7.5) were rapidly mixed with O2-saturated buffer at 5 °C in a 1:1 ratio and then quenched with 1% CF3CO2H at defined time points. The data were fitted with the function, y = a·(1 − exp(−bx)) + c. Hydroxylation levels were assessed by MALDI-TOF-MS. A, hydroxylation of HIF-1α CAD, 1CA, and tankyrase-1 peptide substrates (19- and 20-mers); B, hydroxylation of HIF-1α, HIF-2α, and tankyrase-1 35-mer peptide substrates; C, hydroxylation of 1CA, 2CA, and 3CA. Data plotted were cumulatively acquired over the course of 1–3 separate experiments.

[2] = biological target: T1, FIH; assay: O2 dependence of FIH-catalyzed hydroxylation (hypoxia workstation); settings: FIH with the named substrate; 5 μM FIH, 500 μM peptide, 50 μM Fe(II), 1 mM 2OG, 1 mM L-ascorbate, 50 mM HEPES pH 7.5, 37 °C, hypoxia workstation at different pO2; triplicate assays
Protocol: (§1) The O2 dependence of FIH-catalyzed reactions was determined by conducting enzymatic assays in an “In vivo 500 Hypoxia Workstation” (Ruskinn) using buffers pre-equilibrated under different pO2 values for 24 h. The O2 dependence of PHD2-catalyzed reactions was determined by conducting enzymatic assays in sealed glass vials with variable N2/O2 contents ([42]). Reactions were stopped by spotting samples onto a matrix-assisted laser desorption/ionization-time of flight mass spectrometry (MALDI-TOF-MS) target plate and immediately mixing with α-cyano-4-hydroxycinnamic acid matrix. Hydroxylation levels were assessed by MALDI-TOF-MS as described ([46]).
FIGURE 4. O2 dependence of FIH- and PHD2-catalyzed hydroxylation of HIF-1/2α. A, O2 dependence of PHD2-catalyzed hydroxylation of HIF-1/2α CODD/NODD 19-mer peptides. 4 μM PHD2, peptide (varied), 50 μM Fe(II), 2OG (varied), 4 mM L-ascorbate in HEPES 50 mM (pH 7.5) were incubated at 37 °C. The different O2 levels were maintained using mass flow controllers ([42]), and the hydroxylation levels were analyzed by MALDI-TOF-MS. B, O2 dependence of FIH-catalyzed hydroxylation of CAD HIF-1/2α 35-mer peptides. Conditions were as follows. 5 μM FIH, 500 μM peptide, 50 μM Fe(II), 1 mM 2OG, 1 mM L-ascorbate in HEPES 50 mM (pH 7.5) were incubated at 37 °C in a hypoxia work station under different pO2. […] Error bars, S.D. of triplicate assays.
FIGURE 8. Time course and O2 dependence of the FIH-catalyzed hydroxylation of HIF-α CAD and ARD substrates. Conditions were as follows. 5 μM FIH, 500 μM peptide, 50 μM Fe(II), 1 mM 2OG, 1 mM L-ascorbate in HEPES 50 mM (pH 7.5) were incubated at 37 °C. For O2 dependence studies, reactions were carried out in a hypoxic work station under different pO2 (assays at >20% O2 conducted using mass flow controllers ([42])). The different hydroxylation levels were analyzed by MALDI-TOF-MS or by LC-MS (for 2CA and 3CA). […] Error bars, S.D. of triplicate assays. A, time course of consensus ARD substrate hydroxylation (tankyrase-1 (tnkrs-1 20-mer and 35-mer) and one-consensus ankyrin repeat 20-mer (1CA)). B, time course of ARD peptide hydroxylation (one-consensus ankyrin repeat 20-mer (1CA), two ankyrin repeats (2CA), and three ankyrin repeats (3CA)). C, O2 dependence of HIF-1/2α CAD, 1CA, and tnkrs-1_35-mer hydroxylation. D, O2 dependence of 1CA, 2CA, and 3CA hydroxylation.

[3] = biological target: T1, FIH; assay: Stopped-flow UV-visible spectroscopy, FIH·Fe(II)·2OG·substrate + O2; settings: anaerobic 0.5 mM FIH, 1 mM substrate, 5 mM 2OG, 0.4 mM Fe(II), 50 mM HEPES pH 7.5, mixed 1:1 with O2-saturated buffer at 5 °C; double exponential fit
Protocol: (§2) Stopped-flow UV-visible spectroscopy experiments were performed as described previously ([32], [42]). Anerobically prepared assay mixtures containing 0.5 mM apo-FIH, 1 mM substrate, 5 mM 2OG, 0.4 mM Fe(II) or 0.8 mM apo-PHD2, 1 mM substrate, 5 mM 2OG, 0.5 mM Fe(II) were rapidly mixed with O2-free/O2-saturated buffer. The reaction was observed over 1000 s using a photodiode array detector, and kinetic traces were analyzed using Origin version 8.51 software. Data were fitted with a double exponential function (y = A1 × exp(−kriset) + A2 × exp(−kfallt) + y0). The A1, A2, and y0 parameters were restricted with upper limits to match the observed amplitude/offset changes.
Kinetic traces were fitted using a double exponential function; the fitting parameters of intermediate formation and decay are summarized in Table 3.
FIGURE 10. Stopped-flow UV-visible absorbance changes upon FIH-catalyzed hydroxylation of HIF-1/2α CAD and ARD substrates. Reaction mixtures containing anaerobic 0.5 mM apo-FIH, 0.4 mM Fe(II), 5 mM 2OG, and 1 mM peptide in HEPES 50 mM (pH 7.5) were rapidly mixed with O2-saturated buffer at 5 °C in 1:1 ratio and analyzed using a photodiode array detector. The data were fitted with a double exponential function. A, decay at 500 nm (representing enzyme·substrate complex depletion) observed upon FIH-catalyzed hydroxylation of ARD substrates compared with HIF-1/2α CAD. B, formation and degradation of 310 nm species observed upon FIH-catalyzed HIF-1/2α CAD and ARD hydroxylation. C, decay at 500 nm observed upon FIH-catalyzed hydroxylation of 1CA, 2CA, and 3CA substrates.

[4] = biological target: T1, FIH; assay: Steady-state kinetics of FIH-catalyzed peptide/protein hydroxylation (MALDI-TOF-MS or LC-MS); settings: 50 μM Fe(II), 1 mM L-ascorbate, 50 mM HEPES pH 7.5, 37 °C; for Km: 0.1–5 μM FIH, MALDI-TOF-MS (LC-MS for 2CA, 3CA), triplicate assays
Protocol: Enzymatic assays were conducted as described ([46], [47]). Unless otherwise stated, the assay mixture typically contained 5 μM FIH, 500 μM substrate, 500 μM 2OG, 1 mM L-ascorbate, and 50 μM Fe(NH4)2(SO4)2 or 4 μM PHD2, 100 μM substrate, 300 μM 2OG, 4 mM L-ascorbate, and 50 μM Fe(NH4)2(SO4)2. For HIF-1α CODD19-mer, the background levels of methionine oxidation resulting from assay conditions were subtracted based on non-enzymatic controls ([48]).
as §1
Samples obtained from FIH kinetic assays with 2CA and 3CA were diluted to a substrate concentration of 5 μM and then analyzed using a Waters® LCT Classic mass spectrometer by electrospray ionization in positive ion mode. An Agilent HP1100 LC system was used, and samples were run through a Phenomenex® Aeris Widepore 3.6-μm XB-C8 150 × 2.1-mm column at 0.5 ml/min in a gradient of phase A (95% H2O, 5% CH3CN, 0.01% formic acid) to phase B (95% CH3CN, 5% H2O, 0.01% formic acid). The LC/MS used the following method: 0–1.5 min, 100% A and then 1.5–12 min linear gradient from 0 to 100% B, 12–14 min 100% B, and 15.0–19.0 min 100% A for re-equilibration of the column. Data were collected and analyzed using MassLynx version 4.0.

[5] = biological target: T2, PHD2 (Homo sapiens, UniProt Q9GZT9); assay: Stopped-flow UV-visible spectroscopy, PHD2·Fe(II)·2OG·substrate + O2; settings: anaerobic 0.8 mM PHD2, 1 mM peptide, 5 mM 2OG, 50 mM HEPES pH 7.5, mixed 1:1 with O2-saturated buffer at 5 °C; double exponential fit; traces average of triplicate
T2 construct: The catalytic domain of PHD2 (residues 181–426) was purified as described; made in house
Protocol: as §2, with “Anerobically prepared assay mixtures containing 0.5 mM apo-FIH, 1 mM substrate, 5 mM 2OG, 0.4 mM Fe(II) or 0.8 mM apo-PHD2, 1 mM substrate, 5 mM 2OG, 0.5 mM Fe(II) were rapidly mixed with O2-free/O2-saturated buffer.” left out
Previously reported pre-steady-state kinetic studies on PHD2 focused on its reaction with CODD HIF-1α 19-mer peptide ([38], [42]); there is no reported information on the rates of PHD2 reaction with O2 in the presence of NODD HIF-1α or HIF-2α substrates. To ascertain whether a slow reaction with O2 under pre-steady-state conditions is common to PHD2-catalyzed hydroxylation of both CODD and NODD, we investigated the reaction of PHD2 with NODD substrates in comparison with CODD for both HIF-1α and HIF-2α. Pre-steady-state reactions of PHD2 were initiated by rapid mixing of anaerobic PHD2·Fe(II)·2OG·HIF-α complexes with O2-saturated buffer at 5 °C. Reactions were initially observed using a photodiode array detector, and difference spectra (in comparison with the reaction with O2-free buffer) were subsequently analyzed.
FIGURE 5. Pre-steady-state kinetics of PHD2-catalyzed HIF-1/2α hydroxylation. […] B, stopped-flow kinetic traces at 520 nm showing absorbance changes in control experiments: Fe(II) only, mix of Fe(II) and 2OG, reaction of PHD2·Fe(II)·2OG complex with O2 in the absence of CODD; reaction of PHD2·Fe(II)·N-oxalylglycine (NOG)·CODD complex with O2. N-Oxalylglycine is an inhibitor of 2OG oxygenases. […] The kinetic traces represent the average of triplicate assays. E, HIF-1/2α peptide hydroxylation, as determined by MALDI-TOF-MS. Reactions were quenched with 1% CF3CO2H at defined time points.

T1 sequence (Q9NWT6 whole entry): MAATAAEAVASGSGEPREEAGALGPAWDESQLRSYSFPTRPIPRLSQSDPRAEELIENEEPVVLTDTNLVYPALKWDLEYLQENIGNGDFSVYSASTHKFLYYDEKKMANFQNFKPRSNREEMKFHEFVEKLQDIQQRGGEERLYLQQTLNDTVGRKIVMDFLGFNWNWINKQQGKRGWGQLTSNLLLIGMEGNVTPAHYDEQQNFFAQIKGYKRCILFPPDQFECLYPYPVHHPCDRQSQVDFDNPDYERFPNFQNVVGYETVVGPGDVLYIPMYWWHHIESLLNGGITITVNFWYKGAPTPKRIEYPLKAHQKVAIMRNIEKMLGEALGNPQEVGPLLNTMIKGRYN
T2 sequence (Q9GZT9 181-426): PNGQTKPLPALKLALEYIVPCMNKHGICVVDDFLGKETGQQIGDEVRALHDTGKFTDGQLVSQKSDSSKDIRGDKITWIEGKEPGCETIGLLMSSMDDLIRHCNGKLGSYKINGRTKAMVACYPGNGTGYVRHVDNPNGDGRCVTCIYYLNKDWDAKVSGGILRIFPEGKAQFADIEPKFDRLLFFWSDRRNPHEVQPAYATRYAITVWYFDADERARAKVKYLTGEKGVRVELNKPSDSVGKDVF

Rapid quench-flow kproduct [1]: 0.013 ± 0.003 s⁻¹
Rapid quench-flow ksuccinate [1]: 0.016 ± 0.004 s⁻¹
Km^app(O2) [2]: no difference
Molecule: DESGLPQLTSYDCEVNAPI [CAD HIF-1α19-mer]

Molecule: NLEVAEYLLEHGADVNAQDK [tnkrs-1_20-mer, 20-mer fragment of tankyrase-1, ARD substrate of FIH]
Rapid quench-flow kproduct [1]: 1.5 ± 0.1 s⁻¹
Rapid quench-flow ksuccinate [1]: 1.0 ± 0.3 s⁻¹
product accumulation rate, fold faster than the reaction with HIF 35-mer substrates ([1]; rapid quench-flow, 5 °C): ~10 fold
Stopped-flow, 500 nm (FIH) kfall phase [3]: 16.7 ± 0.2 s⁻¹
Stopped-flow, 500 nm (FIH) krise phase [3]: 0.4 ± 0.2 s⁻¹
Km ([4]; FIH with the named substrate, 2OG varied, read-out: Km^app(2OG)): 370 ± 120 µM
kcat^app ([4]; FIH, MALDI-TOF-MS or LC-MS): 0.8 ± 0.1 s⁻¹
Km ([4]; FIH, substrate varied, 2OG fixed, read-out: Km^app(peptide)): 78 ± 11 µM

Stopped-flow, 520 nm (PHD2) kfall phase [5]: same kinetics
B1: HIF-1α(344–503) NODD protein: recombinant HIF-1α(344–503) NODD protein, longer PHD2 substrate (protein, UniProt Q16665 344-503, looked up, fragment)
chain: GIIQHDLIFSLQQTECVLKPVESSDMKMTQLFTKVESEDTSSLFDKLKKEPDALTLLAPAAGDTIISLDFGSNDTETDDQQLEEVPLYNDVMLPSPNEKLQNINLAMSPLPTAETPKPLRSSADPALNQEVALKLEPNPESLELSFTMPQIQDQTPSPSD
